According to patent US4826845A, “3(2H)-pyridazinones and pharmaceutical compositions thereof” (Richter Gedeon Vegyeszeti Gyar T.R., priority 1985, dated 1989):
Structures can show the parent of a compound that is named as a salt. Where two headings read alike, the source gives them in different places.

How the values were obtained:
anaesthetized cats [1] = test: Measurement of the hypotensive effect on anaesthetized cats (i.v. screening); assay type: in vivo, cat
Procedure: A tube was introduced into the trachea of cats anaesthetized by the intraperitoneal (i.p.) administration of 35 mg/kg of sodium pentobarbital whereby the spontaneous breathing was supported. On the one side of the animals, the femoral artery and vein were exposed and a polyethylene cannula was introduced in both vessels each. The substances to be tested were administered through the venous cannula. The mean arterial blood pressure was measured by connecting the arterial cannula with a Statham P 23 Db pressure transducer and electromanometer.
As a first screening dose, 5 mg/kg of the compounds to be tested were intravenously (i.v.) administered.

conscious SH rats = test: Antihypertensive effect on conscious, spontaneously hypertensive (SH) rats after oral administration; assay type: in vivo, rat
Description: The systolic blood pressure was indirectly measured by the tail-cuff method. The compounds to be tested were introduced orally (p.o.) to the animals. The blood pressure measurements were made by using a 5-channel automatized equipment.

[2] = test system: postsynaptic alpha1 receptor; test: Kinetic analysis on rabbit aorta strip preparation: postsynaptic alpha1 receptor antagonism; assay type: cell-based
Procedure: Male rabbits with a body-weight of 3 to 3.5 kg were used for these experiments. […] A dose response curve was plotted by using norepinephrine and a dose selected from the steepest interval of the curve was added repeatedly to the bath until obtaining equal responses. Then, the compound to be tested was added and after 5 minutes, the dose series of norepinephrine was repeated. The extent of the inhibition was expressed as percentage.

[3] = test system: adrenergic receptor-mediated calcium channel; test: Calcium-antagonism on isolated portal vein: adrenergic receptor-mediated calcium channel; assay type: cell-based; settings: rat portal vein, 1×10^-5 mole norepinephrine, 37° C.; read-out: Inhibition of the calcium channel, adrenergic receptor-mediated, IC50
Procedure: The calcium-antagonism of the compounds of the invention was studied on an isolated vessel preparation based on the work of M. Fiol de Cuneo et al. [Arch. Int. Pharmacodyn.
Male CFY rats with a body-weight of 150 to 200 g were bled by decapitation and the portal vein was immediately prepared starting from the hepatic portal. The vessel was longitudinally incised, bound to a transducer registering the contractions and incubated under a tension of 1 g at 37° C. in a calcium-free Krebs-Ringer bicarbonate solution aerated with carbogen. After an equilibration lasting for 30 minutes, the functioning of the receptor-mediated and the K^+ -depolarisation-mediated calcium channels, respectively, were investigated.
All measurements were carried out at 37° C. while bubbling through carbogen.

[4] = test system: pressor (blood pressure increasing) effect of epinephrine; test: Inhibition of the pressor effect of epinephrine; settings: in vivo
anaesthetized cats [5] = test: Hypotensive and heart rate effects on anaesthetized cats after intravenous or intraduodenal administration; assay type: in vivo, cat
Procedure: The cats were anaesthetized by intraperitoneally administering 35 mg/kg of sodium pentobarbital while promoting the spontaneous respiration by the introduction of a trachea cannula. On one side, the femoral vessels are cannulated. The cannula introduced to the femoral vein was used for the intravenous administration of the compounds to be tested. The arterial cannula was connected with a Hellige electromanometer by using a Statham P 23 Db transducer for measuring the mean arterial pressure. The heart rate was continuously registered by means of a cardiotachometer triggered by the pulse wave sign of the electromanometer.
In an other series of these experiments, the compound to be tested was administered through a duodenal tube. The compound of Example 3 (or 12) was used in intravenous doses of 0.5, 1.0 and 5.0 mg/kg as well as in intraduodenal doses of 1.25, 5.0 and 10.0 mg/kg.

anaesthetized dogs = test: Hypotensive and heart rate effects on anaesthetized dogs after intravenous or intraduodenal administration; assay type: in vivo, Beagle dog
Procedure: (§1) Beagle dogs of both sexes were anaesthetized by the intravenous administration of 40 mg/kg of sodium pentobarbital. A cannula was introduced to the femoral artery and vein each on one side for the intravenous administration of the compounds to be tested as well as for measuring the blood pressure.
In an other series of these experiments, the substances were administered through a duodenal tube. Similarly to the experiments carried out on cats, the systemic arterial blood pressure was measured by using an electromanometer and the cardiotachometer was triggered by the heart rate wave sign. […]

renal artery = test: Renal arterial vascular resistance in anaesthetized dogs; assay type: in vivo, Beagle dog
Procedure: as §1
In an other series of these experiments, the substances were administered through a duodenal tube. Similarly to the experiments carried out on cats, the systemic arterial blood pressure was measured by using an electromanometer and the cardiotachometer was triggered by the heart rate wave sign.
The renal artery on one side was exposed retroperitoneally and fitted with an electromagnetic flow-meter head for measuring the blood flow of the renal arterial vascular bed and for determining the local vascular resistance.

[6] = test system: conscious renal hypertensive rats; test: Antihypertensive effect on conscious renal hypertensive rats after acute oral treatment; assay type: in vivo, rat
Description: These experiments were accomplished on conscious spontaneously hypertensive (SH) and renally hypertensive rats.
(§2) The systolic blood pressure and heart rate of the animals were indirectly measured by using the tail-cuff method by means of a 5- channel automatized equipment.

SH rats = test: Subacute treatment of SH rats; assay type: in vivo, rat
Procedure: as §2
The subacute experiments were carried out on SH rats by administering daily twice a 3 mg/kg intraperitoneal dose for 14 days.

Acute toxicity in mice = settings: mouse, in vivo
Description: Male and female CFY rats and mice were used.

Question: With O=c1cccnn1CCCNCC1COc2ccccc2O1 (centres unmarked) [Example 3 (or 12), 2-[3-(benzo[1,4]dioxan-2-yl-methylamino)-1-propyl]-3(2H)-pyridazinone hydrochloride] as the molecule, how does the “Mean arterial pressure decrease” value (anaesthetized cats [1]; anaesthetized cats, 5.0 mg/kg i.v.) read?
Answer: -95 Hgmm

Question: And the “blood pressure lowering action (in words)” value (anaesthetized cats [1]; intravenous, summary of Table 1)?
Answer: particularly expressed

Question: What about the “Decrease in the systolic blood pressure” value (conscious SH rats; 6.25 mg/kg p.o.) of the same molecule?
Answer: -18%

Question: And the “Decrease in the systolic blood pressure” value (conscious SH rats; 12.5 mg/kg p.o.)?
Answer: -25%

Question: And the “Decrease in the systolic blood pressure” value (conscious SH rats; 25 mg/kg p.o.)?
Answer: -32%

Question: And the pA2 ([2]; negative logarithm of the molar antagonist concentration inhibiting the agonist to 50%, norepinephrine agonist, 5 min)?
Answer: 7.26

Question: What about the “Slope of the curve” value ([2]; rabbit aorta, norepinephrine) of the same molecule?
Answer: -1.26

Question: What about the IC50 [3] of the same molecule?
Answer: 400 nM

Question: What about the “inhibition of the pressor effect of epinephrine (in words)” value [4] of the same molecule?
Answer: significant inhibition

Question: And the duration of hypotension (anaesthetized cats [5]; 0.5 mg/kg i.v.)?
Answer: 60 min

Question: And the half-life of hypotension (anaesthetized cats [5]; 0.5 mg/kg i.v.)?
Answer: about 30 minutes

Question: What about the “heart rate effect (in words)” value (anaesthetized cats [5]; 0.5 mg/kg i.v.) of the same molecule?
Answer: accompanied by bradycardia

Question: And the hypotension (anaesthetized cats [5]; 0.5 mg/kg i.v.)?
Answer: 50%

Question: What about the “maximum of the hypotension, intravenous versus intraduodenal” value (anaesthetized cats [5]; 1.0 mg/kg i.v. versus 1.25 mg/kg intraduodenal) of the same molecule?
Answer: nearly equal

Question: What about the “decrease in the blood pressure” value (anaesthetized cats [5]; 1.25 mg/kg intraduodenal) of the same molecule?
Answer: 50%

Question: What about the “duration of hypotension (detected up to)” value (anaesthetized cats [5]; 1.25 mg/kg intraduodenal) of the same molecule?
Answer: up to 2 hours

Question: And the “time of development of hypotension” value (anaesthetized cats [5]; 1.25 mg/kg intraduodenal)?
Answer: ≤ 15 min

Question: What about the “heart rate effect (in words)” value (anaesthetized cats [5]; intraduodenal) of the same molecule?
Answer: significantly diminished

Question: What about the “decrease in the systemic arterial blood pressure” value (anaesthetized dogs; 1.0 mg/kg i.v.) of the same molecule?
Answer: 50%

Question: And the “half-life of the effect” value (anaesthetized dogs; 1.0 mg/kg i.v.)?
Answer: 30 min

Question: What about the “heart rate effect (in words)” value (anaesthetized dogs; 1.0 mg/kg i.v.) of the same molecule?
Answer: bradycardia was observed during the first 5 minutes, then the alteration was not significant

Question: What about the “decay of the hypotensive effect (in words)” value (anaesthetized dogs; 1.0 mg/kg intraduodenal) of the same molecule?
Answer: only halved at the end of the first hour

Question: What about the “decrease in the systemic arterial blood pressure” value (anaesthetized dogs; 1.0 mg/kg intraduodenal) of the same molecule?
Answer: 30%

Question: What about the tachycardia (anaesthetized dogs; 1.0 mg/kg intraduodenal) of the same molecule?
Answer: about 20%

Question: And the “time maximum effect remained constant” value (anaesthetized dogs; 1.0 mg/kg intraduodenal)?
Answer: 30 min

Question: And the “time of maximum effect” value (anaesthetized dogs; 1.0 mg/kg intraduodenal)?
Answer: 5 min

Question: What about the “hypotensive activity compared with verapamil (in words)” value (anaesthetized dogs; any of the two routes) of the same molecule?
Answer: higher than that of verapamil

Question: What about the “hypotensive activity compared with prazosine (in words)” value (anaesthetized dogs; intraduodenal) of the same molecule?
Answer: reached that of prazosine

Question: And the “hypotensive effect (in words)” value (anaesthetized dogs; intravenous and intraduodenal)?
Answer: strong hypotensive effect

Question: What about the “peripheral vasodilatory action in the renal vascular bed compared with prazosine (in words)” value (renal artery) of the same molecule?
Answer: reached or eventually surpassed the activity of prazosine

Question: And the “peripheral vasodilatory action in the renal vascular bed compared with verapamil (in words)” value (renal artery)?
Answer: stronger effects than verapamil

Question: And the “decrease in resistance of the renal artery” value (renal artery; 1 mg/kg i.v.)?
Answer: about 40%

Question: What about the “decrease in resistance of the renal artery” value (renal artery; 1.0 mg/kg intraduodenal) of the same molecule?
Answer: about 40%

Question: What about the maximum antihypertensive effect ([6]; 3.125 mg/kg p.o.) of the same molecule?
Answer: 16%

Question: What about the maximum antihypertensive effect ([6]; 12.5 mg/kg p.o.) of the same molecule?
Answer: 24%

Question: What about the “antihypertensive effect in the 8th hour (in words)” value ([6]; 25 mg/kg p.o., 8th hour) of the same molecule?
Answer: significant even in the 8th hour

Question: What about the tachycardia ([6]; p.o.) of the same molecule?
Answer: 18%

Question: What about the “time of disappearance of tachycardia (in words)” value ([6]; p.o.) of the same molecule?
Answer: disappeared in the 2nd to 3rd hours after the treatment

Question: And the “effect on the following days; tachyphylaxia (in words)” value (SH rats; 3 mg/kg i.p. twice daily for 14 days)?
Answer: not altered on the following days of treatment. No signs of tachyphylaxia were observed

Question: What about the maximum antihypertensive effect (SH rats; 3 mg/kg i.p. twice daily, 10th day) of the same molecule?
Answer: 22%

Question: And the LD50 at 336 h (Acute toxicity in mice; ip, female, i.p., read-out: LD50 i.p.)?
Answer: 160 mg/kg

Question: And the LD50 at 336 h (Acute toxicity in mice; ip, male, i.p., read-out: LD50 i.p.)?
Answer: 160 mg/kg

Question: What about the LD50 at 336 h (Acute toxicity in mice; po, female, p.o., read-out: LD50 p.o.) of the same molecule?
Answer: 200 mg/kg

Question: And the LD50 at 336 h (Acute toxicity in mice; po, male, p.o., read-out: LD50 p.o.)?
Answer: 300 mg/kg
